Laboratory results as given in patent US20100305204A1, “COMPOSITION USEFUL FOR THE PREVENTION OF ADVERSE EFFECT DUE TO THE USE OF PPAR-GAMMA AGONISTS” (SIGMA-TAU INDUSTRIE FARMACEUTICHE RIUNITE S.P.A., priority 2007, published 2010).
Where “and” joins values, the source holds several entries; their conditions need not be identical. Equal values may be shown once.

Assays:
[1] = system: osteocalcine; assay: Serum levels of osteocalcine in rosiglitazone-treated patients affected by osteoporosis
[2] = system: IGF1; assay: Serum levels of IGF1 in rosiglitazone-treated patients affected by osteoporosis
[3] = Body weight (BW) of the patients
[4] = T1 versus T0, a month of wash-out, 6 patients
[5] = after 1-month rosiglitazone wash-out (T1), patients 1-6 individually and mean
[6] = after treatment with rosiglitazone 8 mg/day orally for 12 months (T0), patients 1-6 individually and mean

SMILES: CN(CCOc1ccc(CC2SC(=O)NC2=O)cc1)c1ccccn1 (stereo not drawn) [rosiglitazone]
- Change of serum osteocalcine after wash-out [1, 4]: lightly incremented even if not significantly
- Serum level of osteocalcine, T1 [1, 5]: 0.0028 pg/mL and 0.0029 pg/mL and 0.003 pg/mL and 0.0027 pg/mL and 0.0026 pg/mL
- Serum level of osteocalcine, T0 [1, 6]: 0.0027 pg/mL and 0.003 pg/mL and 0.0031 pg/mL and 0.0023 pg/mL and 0.0022 pg/mL and 0.0026 pg/mL
- Change of serum IGF1 after wash-out [2, 4]: lightly incremented even if not significantly
- Serum level of IGF1, T1 [2, 5]: 310000 pg/mL and 375000 pg/mL and 300000 pg/mL and 380000 pg/mL and 280000 pg/mL and 265000 pg/mL
- Serum level of IGF1, T0 [2, 6]: 300 ng/ml and 235 ng/ml and 260 ng/ml (2×) and 330 ng/ml and 270 ng/ml
- Change of Total Body Water after wash-out [4]: didn't demonstrate variations
- TBW Total Body Water, T1 [5]: 50 and 50.2 and 53.5 and 48 and 50.8 and 49.9
- TBW Total Body Water, T0 [6]: 50.1 and 50.3 and 53.6 and 48 and 50.9 and 49.8
- Change of body weight (BW) after wash-out [3, 4]: didn't demonstrate variations
- BW Body weight, T1 [3, 5]: 98.9 and 102 and 109 and 94.6 and 96.8 and 97
- BW Body weight, T0 [3, 6]: 99 and 102.5 and 108.9 and 94.5 and 97.3 and 97.2
